Experiments:
[1] = target: T1, human BCRP (Homo sapiens, UniProt Q9UNQ0); test: BCRP inhibition in vesicles; assay type: in vitro ADME; details: 0.05–5 µM
T1 sequence (Q9UNQ0 1-655): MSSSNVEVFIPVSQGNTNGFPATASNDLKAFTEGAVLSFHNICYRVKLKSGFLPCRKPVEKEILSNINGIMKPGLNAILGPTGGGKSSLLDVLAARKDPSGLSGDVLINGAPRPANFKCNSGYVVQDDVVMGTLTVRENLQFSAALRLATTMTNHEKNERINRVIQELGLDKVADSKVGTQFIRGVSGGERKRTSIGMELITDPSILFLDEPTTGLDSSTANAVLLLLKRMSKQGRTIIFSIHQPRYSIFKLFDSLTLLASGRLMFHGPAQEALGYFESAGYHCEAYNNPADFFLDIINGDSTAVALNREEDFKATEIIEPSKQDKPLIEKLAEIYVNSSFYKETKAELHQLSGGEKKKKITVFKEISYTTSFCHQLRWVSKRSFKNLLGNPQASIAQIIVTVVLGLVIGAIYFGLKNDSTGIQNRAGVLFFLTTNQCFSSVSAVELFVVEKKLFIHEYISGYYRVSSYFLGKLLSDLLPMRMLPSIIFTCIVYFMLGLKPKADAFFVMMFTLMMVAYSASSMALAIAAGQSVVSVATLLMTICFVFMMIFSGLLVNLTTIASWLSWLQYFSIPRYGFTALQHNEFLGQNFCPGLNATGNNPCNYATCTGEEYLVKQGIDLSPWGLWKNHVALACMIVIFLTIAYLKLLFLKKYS

[2] = target: T1, human BCRP; test: BCRP transportation in inside-out vesicles; assay type: in vitro ADME; details: uptake ratio ≥2-fold indicates substrate
[3] = target: P-gp (Homo sapiens, UniProt P08183); test: P-gp transportation in MDCK-MDR1 cells; assay type: in vitro ADME
Sequence of P-gp (P08183 whole entry): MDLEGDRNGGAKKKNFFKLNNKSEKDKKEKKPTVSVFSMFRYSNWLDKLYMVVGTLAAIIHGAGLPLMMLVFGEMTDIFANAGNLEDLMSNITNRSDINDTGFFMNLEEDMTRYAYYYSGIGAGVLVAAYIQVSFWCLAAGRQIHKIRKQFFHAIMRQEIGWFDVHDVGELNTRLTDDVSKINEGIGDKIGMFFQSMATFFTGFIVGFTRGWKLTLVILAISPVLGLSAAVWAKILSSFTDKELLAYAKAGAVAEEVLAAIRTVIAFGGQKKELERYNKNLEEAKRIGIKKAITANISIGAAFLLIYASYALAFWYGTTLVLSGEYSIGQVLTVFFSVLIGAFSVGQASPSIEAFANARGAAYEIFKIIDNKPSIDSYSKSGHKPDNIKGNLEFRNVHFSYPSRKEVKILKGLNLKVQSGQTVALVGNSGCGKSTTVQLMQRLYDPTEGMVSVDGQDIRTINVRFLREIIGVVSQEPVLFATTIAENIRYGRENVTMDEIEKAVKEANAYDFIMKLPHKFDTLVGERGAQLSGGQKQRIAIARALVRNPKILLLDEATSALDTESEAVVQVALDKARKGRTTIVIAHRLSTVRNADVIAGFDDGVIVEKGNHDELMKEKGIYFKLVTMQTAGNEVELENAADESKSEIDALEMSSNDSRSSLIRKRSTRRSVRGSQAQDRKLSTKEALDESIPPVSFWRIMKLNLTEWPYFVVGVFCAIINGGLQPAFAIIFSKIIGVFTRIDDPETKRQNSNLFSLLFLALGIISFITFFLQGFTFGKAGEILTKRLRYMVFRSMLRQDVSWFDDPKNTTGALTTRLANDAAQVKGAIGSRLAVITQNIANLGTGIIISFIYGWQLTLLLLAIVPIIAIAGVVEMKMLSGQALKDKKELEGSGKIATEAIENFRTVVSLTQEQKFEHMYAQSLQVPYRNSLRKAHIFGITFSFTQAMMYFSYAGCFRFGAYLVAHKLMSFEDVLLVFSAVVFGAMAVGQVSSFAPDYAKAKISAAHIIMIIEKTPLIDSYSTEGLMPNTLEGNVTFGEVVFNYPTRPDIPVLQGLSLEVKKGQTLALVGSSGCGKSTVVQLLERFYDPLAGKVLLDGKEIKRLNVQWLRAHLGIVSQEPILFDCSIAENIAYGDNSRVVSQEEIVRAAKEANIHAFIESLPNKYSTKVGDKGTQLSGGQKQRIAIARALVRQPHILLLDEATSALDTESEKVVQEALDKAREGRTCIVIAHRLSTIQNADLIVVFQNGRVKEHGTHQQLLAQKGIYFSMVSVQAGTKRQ

[4] = target: T2, OCT2 (Homo sapiens, UniProt O15244); test: SLC inhibition assay in HEK293 cells; assay type: in vitro ADME
T2 sequence (O15244 1-555): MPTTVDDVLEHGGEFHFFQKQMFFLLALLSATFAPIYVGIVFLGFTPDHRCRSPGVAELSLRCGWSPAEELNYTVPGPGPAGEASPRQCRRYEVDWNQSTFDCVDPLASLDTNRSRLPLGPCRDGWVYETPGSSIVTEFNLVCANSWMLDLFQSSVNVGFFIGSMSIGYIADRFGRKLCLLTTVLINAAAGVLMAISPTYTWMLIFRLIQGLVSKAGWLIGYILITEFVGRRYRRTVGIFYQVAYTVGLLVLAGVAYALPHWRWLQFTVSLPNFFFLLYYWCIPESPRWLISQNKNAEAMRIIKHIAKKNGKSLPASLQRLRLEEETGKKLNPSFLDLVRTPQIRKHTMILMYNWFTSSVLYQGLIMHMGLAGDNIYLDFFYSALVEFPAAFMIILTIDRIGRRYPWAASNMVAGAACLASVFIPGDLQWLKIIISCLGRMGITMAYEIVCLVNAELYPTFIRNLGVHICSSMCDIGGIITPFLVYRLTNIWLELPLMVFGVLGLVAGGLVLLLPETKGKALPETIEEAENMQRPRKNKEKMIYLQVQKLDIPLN

[5] = In vitro metabolism in liver microsomes; assay type: in vitro ADME; details: 10 μM, 60-min incubation with NADPH and UDPGA; 11 metabolites (M1–M11)
[6] = estimated from PBPK modeling; cited from earlier work
[7] = target: CYP2C9 (Homo sapiens, UniProt P11712); test: Time-dependent CYP inhibition in HLMs; details: 10 µM zanubrutinib, 30 min pre-incubation with HLMs and NADPH
Sequence of CYP2C9 (P11712 whole entry): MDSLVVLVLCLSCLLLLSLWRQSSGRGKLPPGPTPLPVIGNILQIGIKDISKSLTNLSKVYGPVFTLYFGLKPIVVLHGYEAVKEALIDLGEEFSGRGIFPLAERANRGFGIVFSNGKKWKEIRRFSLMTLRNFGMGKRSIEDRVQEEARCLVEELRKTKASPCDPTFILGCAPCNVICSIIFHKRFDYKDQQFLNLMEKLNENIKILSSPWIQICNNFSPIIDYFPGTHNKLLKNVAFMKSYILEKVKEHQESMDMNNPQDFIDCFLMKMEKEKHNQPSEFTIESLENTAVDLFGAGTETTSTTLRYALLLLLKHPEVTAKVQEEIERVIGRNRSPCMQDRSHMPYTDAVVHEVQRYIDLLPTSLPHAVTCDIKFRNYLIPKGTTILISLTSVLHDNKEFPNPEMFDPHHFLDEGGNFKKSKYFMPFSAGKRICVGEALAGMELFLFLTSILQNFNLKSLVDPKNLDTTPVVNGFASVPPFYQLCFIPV

[8] = human, HEK293 cells overexpressing OCT2 (and MOCK cells), probe metformin

SMILES: C=CC(=O)N1CCC([C@@H]2CCNc3c(C(N)=O)c(-c4ccc(Oc5ccccc5)cc4)nn32)CC1 [zanubrutinib]
- BCRP inhibition [1]: did not inhibit BCRP activity
- BCRP substrate status [2]: unlikely to be a substrate
- Papp A→B at 90 min, 1 µM ([3]; dog, MDCK-MDR1): 9.16 ± 0.1 ×10⁻⁶ cm/s
- Papp A→B at 90 min, 10 µM ([3]; dog, MDCK-MDR1): 21.9 ± 0.049 ×10⁻⁶ cm/s
- Papp B→A at 90 min, 1 µM ([3]; dog, MDCK-MDR1): 31.7 ± 0.12 ×10⁻⁶ cm/s
- Papp B→A at 90 min, 10 µM ([3]; dog, MDCK-MDR1): 47.9 ± 0.094 ×10⁻⁶ cm/s
- P-gp substrate status ([3]; efflux ratio >2 indicates substrate): potential P‐gp substrate
- IC50 [4]: ~4.5 µM
- activity at 0.05 µM [4, 8]: 107 ± 10%
- activity at 0.2 µM [4, 8]: 339 ± 5.7%
- activity at 1 µM [4, 8]: 178 ± 36%
- activity at 5 µM [4, 8]: 48.4 ± 5.2%
- Inhibitor status ([4]; up to 5.0 μM): marginal inhibitor
- Metabolism in liver microsomes [5]: extensively metabolized
- Fg (fraction available after intestinal metabolism) [6]: 0.44
- Percent loss of enzymatic activity [7]: 5.86%

— article PMC8524670 (Pharmacology Research & Perspectives, 2021)
